Experimental data from EP4635500A1, “THERAPEUTIC AGENT FOR BACTERIAL INFECTION” (Sumitomo Pharma Co., Ltd., priority 2022, dated 2024).

Experiments:
53 CRE and CPE strains = assay: MICrange, MIC50, MIC80, MIC90 for 53 bacterial isolates (Example 5, Table 5); type: cell-based; settings: 53 bacterial isolates
Enterobacterales = assay: MIC, broth microdilution, CDC/FDA Antibiotic Resistance Isolate Bank (Example 7, Tables 8, 11, 12); type: cell-based
[1] = 154 strains of Enterobacterales

In the case of colistin, the MIC50 (53 CRE and CPE strains) is reported as 0.5 µg/mL, the MIC80 (53 CRE and CPE strains) is reported as 1 µg/mL and the MIC90 (53 CRE and CPE strains) is reported as 32 µg/mL. The MIC50 (Enterobacterales; [1]) was 0.5 µg/mL, the MIC80 (Enterobacterales; [1]) was 8 µg/mL and the MIC90 (Enterobacterales; [1]) was >64 µg/mL. For the same substance, the MIC (Enterobacterales; Citrobacter fremidii, KUB No. 5613, AR Bank # 116) was 1 µg/mL, the MIC (Enterobacterales; Enterobacter aerogenes, KUB No. 5559, AR Bank # 62) was 8 µg/mL and the MIC (Enterobacterales; Enterobacter aerogenes, KUB No. 5571, AR Bank # 74) was 0.5 µg/mL. The MIC (Enterobacterales; Enterobacter cloacae KUB No. 5792, AR Bank #448) was 0.5 µg/mL, the MIC (Enterobacterales; Enterobacter cloacae KUB No. 5807, AR Bank #501) was 0.5 µg/mL and the MIC (Enterobacterales; Enterobacter cloacae KUB No. 5808, AR Bank #502) was 0.5 µg/mL. The MIC (Enterobacterales; Enterobacter cloacae complex, KUB No. 5661, AR Bank # 164) was 0.5 µg/mL, the MIC (Enterobacterales; Enterobacter cloacae group, KUB No. 5629, AR Bank # 132) was 1 µg/mL and the MIC (Enterobacterales; Enterobacter cloacae, KUB No. 5529, AR Bank# 32) was 0.5 µg/mL. It also gave an MIC (Enterobacterales; Enterobacter cloacae, KUB No. 5535, AR Bank# 38) of 0.5 µg/mL, an MIC (Enterobacterales; Enterobacter cloacae, KUB No. 5557, AR Bank# 60) of 0.5 µg/mL and an MIC (Enterobacterales; Enterobacter cloacae, KUB No. 5562, AR Bank # 65) of 0.5 µg/mL. For the same substance, the MIC (Enterobacterales; Enterobacter cloacae, KUB No. 5570, AR Bank # 73) was 8 µg/mL, the MIC (Enterobacterales; Enterobacter cloacae, KUB No. 5590, AR Bank # 93) was 1 µg/mL and the MIC (Enterobacterales; Enterobacter cloacae, KUB No. 5660, AR Bank # 163) was 8 µg/mL. The MIC (Enterobacterales; Enterobacter cloacae, KUB No. 5761, AR Bank # 365) was 1 µg/mL, the MIC (Enterobacterales; Enterobacter cloacae, KUB No. 5763, AR Bank # 367) was 0.5 µg/mL and the MIC (Enterobacterales; Enterobacter cloacae, KUB No. 5778, AR Bank # 432) was 0.5 µg/mL. It also gave an MIC (Enterobacterales; Escherichia coli, KUB No. 5545, AR Bank# 48) of 0.5 µg/mL, an MIC (Enterobacterales; Escherichia coli, KUB No. 5552, AR Bank# 55) of 0.5 µg/mL and an MIC (Enterobacterales; Escherichia coli, KUB No. 5555, AR Bank# 58) of 0.5 µg/mL. For the same substance, the MIC (Enterobacterales; Escherichia coli, KUB No. 5564, AR Bank # 67) was 1 µg/mL, the MIC (Enterobacterales; Escherichia coli, KUB No. 5578, AR Bank # 81) was 0.5 µg/mL and the MIC (Enterobacterales; Escherichia coli, KUB No. 5581, AR Bank # 84) was 0.5 µg/mL. The MIC (Enterobacterales; Escherichia coli, KUB No. 5586, AR Bank # 89) was 0.5 µg/mL, the MIC (Enterobacterales; Escherichia coli, KUB No. 5601, AR Bank # 104) was 0.5 µg/mL and the MIC (Enterobacterales; Escherichia coli, KUB No. 5611, AR Bank # 114) was 0.5 µg/mL. For the same substance, the MIC (Enterobacterales; Escherichia coli, KUB No. 5615, AR Bank # 118) was 1 µg/mL, the MIC (Enterobacterales; Escherichia coli, KUB No. 5616, AR Bank # 119) was 0.5 µg/mL and the MIC (Enterobacterales; Escherichia coli, KUB No. 5764, AR Bank # 368) was 0.5 µg/mL. It also gave an MIC (Enterobacterales; Escherichia coli, KUB No. 5765, AR Bank # 369) of 0.5 µg/mL, an MIC (Enterobacterales; Escherichia coli, KUB No. 5768, AR Bank # 372) of 0.5 µg/mL and an MIC (Enterobacterales; Escherichia coli, KUB No. 5769, AR Bank # 373) of 0.5 µg/mL. For the same substance, the MIC (Enterobacterales; Escherichia coli, KUB No. 5770, AR Bank # 374) was 0.5 µg/mL, the MIC (Enterobacterales; Escherichia coli, KUB No. 5780, AR Bank # 434) was 0.5 µg/mL and the MIC (Enterobacterales; Escherichia, KUB No. 57, AR Bank # 436 (row cut off)) was 0.2 µg/mL. The MIC (Enterobacterales; Klebsiella oxytoca, KUB No. 5568, AR Bank # 71) was 0.5 µg/mL, the MIC (Enterobacterales; Klebsiella oxytoca, KUB No. 5776, AR Bank # 380) was 0.5 µg/mL and the MIC (Enterobacterales; Klebsiella ozaenae, KUB No. 5548, AR Bank# 51) was 0.5 µg/mL. The MIC (Enterobacterales; Klebsiella ozaenae, KUB No. 5593, AR Bank # 96) was 1 µg/mL, the MIC (Enterobacterales; Klebsiella pneumoniae KUB No. 5784, AR Bank #438) was 0.5 µg/mL and the MIC (Enterobacterales; Klebsiella pneumoniae KUB No. 5797, AR Bank #453) was 0.5 µg/mL. For the same substance, the MIC (Enterobacterales; Klebsiella pneumoniae KUB No. 5809, AR Bank #504) was 1 µg/mL, the MIC (Enterobacterales; Klebsiella pneumoniae KUB No. 5810, AR Bank #505) was 1 µg/mL and the MIC (Enterobacterales; Klebsiella pneumoniae KUB No. 5811, AR Bank #506) was 0.5 µg/mL. It also gave an MIC (Enterobacterales; Klebsiella pneumoniae KUB No. 5812, AR Bank #507) of 8 µg/mL, an MIC (Enterobacterales; Klebsiella pneumoniae KUB No. 5827, AR Bank #522) of 32 µg/mL and an MIC (Enterobacterales; Klebsiella pneumoniae KUB No. 5828, AR Bank #523) of 4 µg/mL. The MIC (Enterobacterales; Klebsiella pneumoniae KUB No. 5829, AR Bank #524) was 2 µg/mL, the MIC (Enterobacterales; Klebsiella pneumoniae KUB No. 5830, AR Bank #525) was 16 µg/mL and the MIC (Enterobacterales; Klebsiella pneumoniae, KUB No. 55, AR Bank# 47) was 64 µg/mL. For the same substance, the MIC (Enterobacterales; Klebsiella pneumoniae, KUB No. 5531, AR Bank# 34) was 0.5 µg/mL, the MIC (Enterobacterales; Klebsiella pneumoniae, KUB No. 5536, AR Bank# 39) was 0.5 µg/mL and the MIC (Enterobacterales; Klebsiella pneumoniae, KUB No. 5537, AR Bank# 40) was 4 µg/mL. The MIC (Enterobacterales; Klebsiella pneumoniae, KUB No. 5543, AR Bank# 46) was 4 µg/mL, the MIC (Enterobacterales; Klebsiella pneumoniae, KUB No. 5546, AR Bank# 49) was 0.5 µg/mL and the MIC (Enterobacterales; Klebsiella pneumoniae, KUB No. 5563, AR Bank # 66) was 0.5 µg/mL. The MIC (Enterobacterales; Klebsiella pneumoniae, KUB No. 5565, AR Bank # 68) was 1 µg/mL, the MIC (Enterobacterales; Klebsiella pneumoniae, KUB No. 5572, AR Bank # 75) was 0.5 µg/mL and the MIC (Enterobacterales; Klebsiella pneumoniae, KUB No. 5577, AR Bank # 80) was 0.5 µg/mL. For the same substance, the MIC (Enterobacterales; Klebsiella pneumoniae, KUB No. 5584, AR Bank # 87) was 64 µg/mL, the MIC (Enterobacterales; Klebsiella pneumoniae, KUB No. 5594, AR Bank # 97) was 8 µg/mL and the MIC (Enterobacterales; Klebsiella pneumoniae, KUB No. 5603, AR Bank # 106) was 32 µg/mL. The MIC (Enterobacterales; Klebsiella pneumoniae, KUB No. 5604, AR Bank # 107) was 0.5 µg/mL.
